Test results from PMC6746272, “Towards discovery of novel scaffold with potent antiangiogenic activity; design, synthesis of pyridazine based compounds, impact of hinge interaction, and accessibility of their bioactive conformation on VEGFR-2 activities” (Journal of Enzyme Inhibition and Medicinal Chemistry, 2019).
Read-outs that look alike come from different tables or passages of the source.

Legend:
VEGFR-2 = biological target: T1, VEGFR-2 (Homo sapiens, UniProt P35968); experiment: VEGFR-2 kinase inhibition assay (Alpha Screen, phosphotyrosine antibody); format: biochemical; conditions: for inhibition at 10 µM: read-out: VEGFR-2% inhibition
T1 construct: purchased Millipore, United Kingdom
T1 sequence (P35968 20-1356): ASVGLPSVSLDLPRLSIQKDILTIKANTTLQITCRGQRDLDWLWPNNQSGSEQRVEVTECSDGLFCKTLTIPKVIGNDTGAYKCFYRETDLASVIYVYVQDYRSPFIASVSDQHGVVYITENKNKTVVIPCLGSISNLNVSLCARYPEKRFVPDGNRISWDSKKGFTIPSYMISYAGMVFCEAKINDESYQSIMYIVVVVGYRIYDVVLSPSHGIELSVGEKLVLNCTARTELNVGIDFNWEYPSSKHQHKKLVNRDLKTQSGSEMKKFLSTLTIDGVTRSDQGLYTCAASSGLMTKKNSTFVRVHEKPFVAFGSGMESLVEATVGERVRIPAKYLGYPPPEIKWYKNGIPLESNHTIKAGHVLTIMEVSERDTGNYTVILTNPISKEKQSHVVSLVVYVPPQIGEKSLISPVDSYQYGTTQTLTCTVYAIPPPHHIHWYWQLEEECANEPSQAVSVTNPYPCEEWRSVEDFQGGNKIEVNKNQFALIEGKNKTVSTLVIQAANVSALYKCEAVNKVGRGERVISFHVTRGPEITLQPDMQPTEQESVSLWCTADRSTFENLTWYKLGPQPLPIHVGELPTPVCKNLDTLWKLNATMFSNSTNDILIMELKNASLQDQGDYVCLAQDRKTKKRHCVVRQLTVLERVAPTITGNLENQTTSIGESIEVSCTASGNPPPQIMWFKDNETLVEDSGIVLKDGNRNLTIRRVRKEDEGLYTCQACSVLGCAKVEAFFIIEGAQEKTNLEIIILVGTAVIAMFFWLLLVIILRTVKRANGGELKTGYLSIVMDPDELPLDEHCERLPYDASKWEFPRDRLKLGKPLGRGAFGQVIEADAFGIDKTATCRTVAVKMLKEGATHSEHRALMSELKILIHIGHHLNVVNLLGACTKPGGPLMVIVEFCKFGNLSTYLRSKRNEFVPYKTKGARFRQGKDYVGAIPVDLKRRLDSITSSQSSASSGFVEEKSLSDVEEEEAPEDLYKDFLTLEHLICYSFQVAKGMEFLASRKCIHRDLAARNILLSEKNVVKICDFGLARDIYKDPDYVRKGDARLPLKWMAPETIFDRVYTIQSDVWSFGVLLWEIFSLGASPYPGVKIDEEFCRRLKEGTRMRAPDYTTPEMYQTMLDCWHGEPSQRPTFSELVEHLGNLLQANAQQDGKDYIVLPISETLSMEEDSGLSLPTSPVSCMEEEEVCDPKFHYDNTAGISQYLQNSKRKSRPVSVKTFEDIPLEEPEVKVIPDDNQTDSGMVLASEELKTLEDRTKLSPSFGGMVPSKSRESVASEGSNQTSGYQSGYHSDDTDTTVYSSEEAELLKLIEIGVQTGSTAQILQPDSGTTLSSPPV
Procedure: The kinase activity of VEGFR-2 was measured by use of a phosphotyrosine antibody with the
Alpha Screen system (PerkinElmer, United States) according to manufacturer’s instructions. Enzyme reactions were performed in 50 mM Tris–HCl pH 7.5, 5 mM MnCl2, 5 mM MgCl2, 0.01% Tween-20 and 2 mM DTT, containing 10 μM ATP, 0.1 μg/mL biotinylated poly-GluTyr (4:1), and 0.1 nM of VEGFR-2 (Millipore, United Kingdom). Prior to catalytic initiation with ATP, the tested compounds at final concentrations ranging from 0 to 100 μg/mL and enzyme were incubated for 5 min at room temperature. […] Plate was incubated in the dark overnight and then read by ELISA Reader (PerkinElmer, United States). Wells containing the substrate and the enzyme without compounds were used as reaction control. Wells containing biotinylated poly-GluTyr (4:1) and enzyme without ATP were used as basal control. Percent inhibition was calculated by the comparison of compounds treated to control incubations.

HUVEC cell line = experiment: In vitro HUVEC anti-proliferative assay (alamar Blue); format: cell-based, human; conditions: for HUVEC proliferation (%): 72 h, Mean ± SD, n = 3
Procedure: Compounds 8c, 8f, 15, 18b, and 18c were selected to be tested for their ability to in vitro inhibit VEGF-induced HUVEC cell line proliferation, using doxorubicin as a control.
The assay was performed at single dose concentration of 10 µM, where HUVEC, human (Life Technologies # C-003-5C) served as the cells’ source, in Medium 200 (Life Technologies # M-200–500), with large vessel endothelial supplement (LVES) (Life Technologies # A14608-01) and Pen-strep (Hyclone # SV30010). Alamar Blue (Life Technologies # DAL1025) was used as the fluorescent reagent.
HUVEC cells were cultured in Medium 200 with 2% LVES and 1% Pen-strep. To perform the proliferation assay, HUVEC cells were seeded at 5000 cells/50 μl/well in a 96-well black clear bottom tissue culture plate. Cells were incubated at 37 °C and 5% CO2 overnight to allow them to recover and reattach. Next day cells were treated with test compounds for 72 h. After treatment, cell proliferation was measured by Fluorescent quantitation of alamar Blue reagent. The alamar Blue assay incorporates a fluorometric/colorimetric growth indicator based on detection of metabolic activity. Specifically, resazurin, the active ingredient in the alamar Blue reagent, is blue in colour and virtually non-fluorescent. Upon entering cells, resazurin is reduced to resorufin, a compound that is red in colour and highly fluorescent. Continued cell growth maintains a reduced environment, therefore increasing the overall fluorescence and colour of the media surrounding cells. […] To perform the alamar Blue assay, […] of alamar Blue reagent was added to each well and the plate was incubated at 37 °C for an additional 2 h. Fluorescence intensity was measured at an excitation of 530 nm and an emission of 590 nm using a BioTek SynergyTM 2 microplate reader.
Cell proliferation assays were performed in triplicate at each concentration. The fluorescent intensity data were analysed using the computer software, Graphpad Prism. In the absence of the compound, the fluorescent intensity (Ft) in each data set was defined as 100%. In the absence of cells, the fluorescent intensity (Fb) in each data set was defined as 0%. The percent cell in the presence of each compound was calculated according to the following equation: % Cell = (F – Fb)/(Ft – Fb), where F = the fluorescent intensity in the presence of the compound, Fb = the fluorescent intensity in the absence of cells, and Ft = the fluorescent intensity in the absence of the compound.

NCI 56 cell line panel = experiment: NCI primary anticancer assay, mean over panel (SRB); format: cell-based, human; conditions: 10–5 M
Procedure: The selected compounds were evaluated at primary anticancer assay against a panel of 56 cancer lines at concentration 10–5 M. The human tumour cell lines were derived from nine different cancer types: leukaemia, melanoma, lung, colon, CNS, ovarian, renal, prostate, and breast cancers.
A 48 h drug exposure protocol was used and sulforhodamine B (SRB) protein assay was applied to estimate the cell viability and growth. The mean percentages GI (GI%) of the tested compounds over the full panel of cell lines are illustrated in Figure 4.
The cytotoxicity assays were performed at NCI, Bethesda, United States (against 56 cell lines). […]
Experimental drugs were solubilised in dimethyl sulfoxide at 400-fold the desired final maximum test concentration and stored frozen prior to use. […] Bound stain was subsequently solubilised with 10 mM trizma base, and the absorbance was read on an automated plate reader at a wavelength of 515 nm. […] Using the seven absorbance measurements [time zero (Tz), control growth (C), and test growth in the presence of drug at the five concentration levels (Ti)], the percentage growth was calculated at each of the drug concentration levels. Percentage GI was calculated as: [(Ti – Tz)/(C – Tz)] × 100 for concentrations for which Ti ≥ Tz [(Ti – Tz)/Tz] × 100 for concentrations for which Ti < Tz.

VEGFR1 = tested on: VEGFR1; set-up: method as in PMID 23123015, PMID 23305239; conditions: read-out: inhibits VEGFR1; cited from earlier work
VEGFR2 = tested on: VEGFR2; set-up: method as in PMID 23123015, PMID 23305239; conditions: read-out: inhibits VEGFR2; cited from earlier work
VEGFR3 = tested on: VEGFR3; set-up: method as in PMID 23123015, PMID 23305239; conditions: read-out: inhibits VEGFR3; cited from earlier work
PDGFRα = tested on: PDGFRα; set-up: method as in PMID 23123015, PMID 23305239; conditions: read-out: inhibits PDGFRα; cited from earlier work
PDGFRβ = tested on: PDGFRβ; set-up: method as in PMID 23123015, PMID 23305239; conditions: read-out: inhibits PDGFRβ; cited from earlier work
[1] = single concentration of 10 µM, Mean ± SD, n = 3
[2] = 5 concentrations 1 nM - 10 µM, Mean ± SD, n = 3, read-out: VEGFR-2 IC50

1-[3,4-Dichlorophenyl)-3–(6-morpholino-[1, 2, 4]triazolo[4,3-b]pyridazin-3-yl]urea [Compound 5a]
VEGFR-2% inhibition (VEGFR-2; [1]): 5.07 ± 0.61%

1-[3-Methoxyphenyl)-3–(6-morpholino-[1, 2, 4]triazolo[4,3-b]pyridazin-3-yl]urea [Compound 5c]
VEGFR-2% inhibition (VEGFR-2; [1]): 13.10 ± 1.71%

1-[4-((6-Chloropyridazin-3-yl)amino)phenyl)-3–(3,4-dichlorophenyl]urea [Compound 11d]
VEGFR-2% inhibition (VEGFR-2; [1]): 11.93 ± 2.25%

1-[4-Chloro-3-(trifluoromethyl)phenyl)-3–(3-(6-oxo-1,6-dihydropyridazin-3-yl)phenyl]urea [Compound 8e]
VEGFR-2% inhibition (VEGFR-2; [1]): 27.03 ± 3.29%

1-[4-Chloro-3-(trifluoromethyl)phenyl)-3–(6-morpholino-[1, 2, 4]triazolo[4,3-b]pyridazin-3-yl]urea [Compound 5b]
VEGFR-2% inhibition (VEGFR-2; [1]): 7.07 ± 1.11%

O=C(Nc1ccc(Cl)c(Cl)c1)Nc1nnc2ccc(Cl)nn12 [Compound 3]
inhibition at 10 µM (VEGFR-2; [1]): 3.06 ± 0.45% | melting point: 173 to 175 °C

O=C(Nc1ccc(-c2ccc(=O)[nH]n2)cc1)Nc1ccc(Cl)c(C(F)(F)F)c1 [Compound 8c]
IC50 (VEGFR-2; [2]): 1.3 ± 0.14 µM | HUVEC proliferation (%) (HUVEC cell line; 10 µM): 14.75 ± 0.059%

COc1ccc(Nc2ccc(NC(=O)Nc3ccc(Cl)c(C(F)(F)F)c3)cc2)nn1 [Compound 15, 1–(4-Chloro-3-(trifluoromethyl)phenyl)-3–(4-((6-methoxypyridazin-3-yl)amino)phenyl) urea]
IC50 (VEGFR-2; [2]): 1.4 ± 0.12 µM | IC50 (VEGFR-2; unit given as nm, read-out: VEGFR-2 IC50 (nm)): 1.41 µM | HUVEC proliferation (%) (HUVEC cell line; 10 µM): 64.50 ± 2.017% | inhibition at 10 µM (HUVEC cell line; Homo sapiens, HUVEC, 10 µM, read-out: growth inhibition (GI) percent against HUVEC cell line): 35.5%

O=C(Nc1ccc(Oc2ccc(=O)[nH]n2)cc1)Nc1ccc(Cl)c(C(F)(F)F)c1 [Compound 18b, 1–(4-Chloro-3-(trifluoromethyl)phenyl)-3–(4-((6-oxo-1,6-dihydropyridazin-3-yl)oxy)phenyl)urea]
IC50 (VEGFR-2; [2]): 0.0607 ± 3e-05 µM | anti-proliferative activity against HUVEC (in words) (HUVEC cell line; 10 μM): potent anti-proliferative activity | HUVEC proliferation (%) (HUVEC cell line; 10 µM): 2.13 ± 0.425% | inhibitory activity against most of the test cell lines (in words) (NCI 56 cell line panel): weak inhibitory activity

CN[C@@H]1C[C@H]2O[C@@](C)([C@@H]1OC)n1c3ccccc3c3c4c(c5c6ccccc6n2c5c31)C(=O)NC4 [Strausporine, staurosporine, reference compound]
inhibition at 10 µM (VEGFR-2): 90.5 ± 4.53%

Cc1cc(C(=O)Nc2cc(Oc3ccc4nc(NC(=O)C5CC5)cn4n3)ccc2C)n(C)n1 [TAK-593]
IC50 (VEGFR1): 0.0032 µM | IC50 (VEGFR2): 0.00095 µM | IC50 (VEGFR3): 0.0011 µM | IC50 (PDGFRα): 0.0043 µM | IC50 (PDGFRβ): 0.013 µM
